Results: US9522881B2, “Hydroxyindole carboxylic acid based inhibitors for oncogenic Src homology-2 domain containing protein tyrosine phosphatase-2 (SHP2)” (Indiana University Research and Technology Corporation, priority 2013, dated 2016)
Entries after “also recorded” stand apart in the source; their conditions may differ.

How the values were obtained:
[1] = tested on: EGF-induced Erk1/2 phosphorylation; assay: EGF-induced Erk1/2 phosphorylation in H1975 cells (immunoblot); type: cell-based, human; settings: H1975 cells, 2 μM
Method: (§1) For biochemical studies, H1975 cells were serum-starved overnight followed by treatment with vehicle or compound 11a-1 for 3 hours, and then either left unstimulated or stimulated with 5 ng/ml EGF (Sigma, St. Louis, Mo.) for 60 minutes. Lysates were then resolved by SDS-PAGE and the protein phosphorylation levels were detected by immunoblot analysis. Specifically, cells were lysed in lysis buffer (1.0% Nonidet P-40, 50 mM Tris-HCl (pH 7.4), 150 mM NaCl, 5 mM EDTA, 2 mM NaVO3, 10 mM NaF) plus a protease inhibitor mixture available from Roche (Basel, Switzerland) and centrifuged at 10,000 rpm for 5 minutes at 4° C. Supernatants were collected and protein concentration was determined using the BCA protein assay (ThermoFisher Scientific, Rockford, Ill.). Equal amount of protein extracts were mixed with gel loading buffer and separated on SDS-PAGE. After electrophoresis, the proteins were transferred onto nitrocellulose membranes and nonspecific binding was blocked with 5% nonfat dry milk in Tris-buffered saline containing 0.1% Tween-20 (TBS-T). Membranes were then probed with various antibodies overnight at 4° C. on a rocker. After incubation, membranes were washed with TBS-T and incubated with appropriate horseradish peroxidase (HRP)-conjugated secondary antibodies for 1 hour at room temperature. Finally, the proteins on the membranes were detected using SuperSignal West Dura Luminol/Enhancer solution (ThermoFisher Scientific, Rockford, Ill.) and membranes were analyzed using Bio-Rad ChemiDoc XRS Imaging System.

[2] = biological target: SHP2 (Homo sapiens (Human), UniProt Q06124); assay: SHP2-catalyzed hydrolysis of p-nitrophenyl phosphate (pNPP); type: biochemical; settings: pNPP substrate, pH 7.0, 25° C.
SHP2, sequence (Q06124 whole entry, looked up): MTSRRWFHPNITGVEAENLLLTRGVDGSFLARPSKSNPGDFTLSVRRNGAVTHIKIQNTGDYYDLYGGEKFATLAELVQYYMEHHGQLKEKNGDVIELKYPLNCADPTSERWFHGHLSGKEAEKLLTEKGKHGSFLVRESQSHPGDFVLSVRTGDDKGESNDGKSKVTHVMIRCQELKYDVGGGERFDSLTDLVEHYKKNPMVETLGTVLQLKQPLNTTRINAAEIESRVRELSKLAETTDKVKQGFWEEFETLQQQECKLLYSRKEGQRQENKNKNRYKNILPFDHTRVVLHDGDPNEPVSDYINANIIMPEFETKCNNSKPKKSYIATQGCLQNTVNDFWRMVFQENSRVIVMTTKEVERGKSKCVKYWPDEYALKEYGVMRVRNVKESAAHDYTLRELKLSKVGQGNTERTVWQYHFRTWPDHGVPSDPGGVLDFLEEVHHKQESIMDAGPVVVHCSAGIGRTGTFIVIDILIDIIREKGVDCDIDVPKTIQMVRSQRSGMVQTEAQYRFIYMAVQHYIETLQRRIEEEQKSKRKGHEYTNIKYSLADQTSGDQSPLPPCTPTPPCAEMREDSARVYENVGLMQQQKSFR
Method: Libraries 11a-d were screened at ˜5 μM for SHP2 inhibitors without further purification. The ability of the library components to inhibit the SHP2-catalyzed hydrolysis of p-nitrophenyl phosphate (pNPP) was evaluated at pH 7.0 and 25° C. More particularly, the phosphatase activity of SHP2 was assayed using p-nitrophenyl phosphate (pNPP) as a substrate at 25° C. in 50 mM 3,3-dimethylglutarate buffer, pH 7.0, containing 1 mM EDTA with an ionic strength of […] adjusted by NaCl. The libraries were screened in a 96-well format at 5 μM compound concentration. […] The nonenzymatic hydrolysis of pNPP was corrected by measuring the control without the addition of enzyme. The amount of product p-nitrophenol was determined from the absorbance at 405 nm detected by a Spectra MAX340 microplate spectrophotometer (Molecular Devices, Sunnyvale, Calif.) using a molar extinction coefficient of 18,000 M^−1 cm^−1. […] IC50 values for selected resynthesized and purified hits were calculated by fitting the absorbance at 405 nm versus inhibitor concentration to the following equation: AI/A0=IC50/(IC50+[I]) where AI is the absorbance at 405 nm of the sample in the presence of the inhibitor; A0 is the absorbance at 405 nm in the absence of inhibitor; and [I] is the concentration of the inhibitor.

[3] = tested on: Paxillin (pY118); assay: Paxillin (pY118) phosphorylation in H1975 cells (immunoblot); type: cell-based, human; settings: 2 μM
Method: as §1

[4] = biological target: SHP2 (D2C) (Homo sapiens (Human), UniProt Q06124); assay: SHP2 (D2C) pNPP inhibition assay, hits of library 7′a-c; type: biochemical; settings: for IC50: pNPP substrate, pH 7, 25° C., library 7′a / 7′c hits
SHP2 (D2C), sequence (Q06124 240-528): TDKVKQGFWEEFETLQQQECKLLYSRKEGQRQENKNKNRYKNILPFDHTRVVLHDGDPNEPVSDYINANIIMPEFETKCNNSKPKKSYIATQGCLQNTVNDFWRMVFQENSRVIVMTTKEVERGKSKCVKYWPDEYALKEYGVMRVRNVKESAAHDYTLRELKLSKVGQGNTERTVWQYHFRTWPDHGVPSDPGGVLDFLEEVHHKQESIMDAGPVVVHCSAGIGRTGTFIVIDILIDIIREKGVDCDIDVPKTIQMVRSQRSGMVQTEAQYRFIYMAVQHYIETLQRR
Method: These three libraries were further screened at 10 μM for SHP2. […] Three pairs of hits bearing the same amine scaffold from library 7′a and 7′c were resynthesized and purified by HPLC. […] (Table 1).
In this Example, SHP2 (D2C) was used to transform into E. coli BL21/DE3 and grown in LB medium containing 50 μg/ml kanamycin at 37° C. to an OD600 of 0.4. Following the addition of IPTG to a final concentration of 20 μM, the culture was incubated at 20° C. with shaking for an additional 16 hours. The cells were harvested by centrifugation at 5000 rpm for 5 minutes at 4° C. The bacterial cell pellets were resuspended in 20 mM Tris, pH 7.9, 500 mM NaCl, 5 mM imidazole, and were lysed by passage through a French press cell at 1,200 psi twice. Cellular debris was removed by centrifugation at 16,000 rpm for 30 minutes at 4° C. The protein was purified from the supernatant using standard procedures of Ni-nitrilotriacetic acid-agarose (Qiagen) affinity purification. The protein eluted from Ni-NTA column was concentrated with an Amicon Ultra centrifugal filter device (Millipore) and the buffer was changed to 20 mM Tris, pH 7.5, 150 mM NaCl, 1 mM EDTA and 1 mM DTT. Protein concentration was determined using the Bradford dye binding assay (Bio-Rad) diluted according to the manufacturer's recommendations with bovine serum albumin as standard. The purified SHP 2 (D2C) were made to 30% glycerol and stored at −20° C.
Inhibition Study: The inhibition assays were performed at 25° C. in 50 mM 3,3-dimethylglutarate buffer, pH 7.0, containing 1 mM EDTA with an ionic strength of 0.15M adjusted by NaCl. The salicylic acid based library was screened in a 96-well format at 10 μM compound concentration. […] The reaction was quenched after 10 minutes by the addition of 50 μl of 5N NaOH, and then this reaction mixture was detected for absorbance at 405 nm by a Spectra MAX340 microplate spectrophotometer (Molecular Devices). IC50 values were calculated by fitting the absorbance at 405 nm versus inhibitor concentration to the following equation: AI/A0=IC50/(IC50+[I]) where AI is the absorbance at 405 nm of the sample in the presence of inhibitor; A0 is the absorbance at 405 nm in the absence of inhibitor; and [I] is the concentration of the inhibitor.

[5] = tested on: hematopoietic progenitor; settings: cited from earlier work
[6] = tested on: 32D myeloid cells bearing KITD814V; assay: Proliferation (thymidine incorporation) of 32D myeloid cells bearing KITD814V; type: cell-based
Method: (§2) FIG. 8A is a graph depicting 32D myeloid cells bearing wild-type (WT) KIT or KITD814V that were starved of serum and growth factors for 6 hours and subjected to proliferation assay in the presence or absence of the indicated concentration of II-B08 or 11a-1 as analyzed in Example 6. Assay was performed in the presence of IL-3 (10 ng/mL) for cells bearing WT KIT and in the absence of growth factors for cells bearing oncogenic KITD814V. Bars denote the mean thymidine incorporation (CPM±SEM) consolidated from four independent experiments performed in triplicate. *p<0.05.
(§3) To further determine the efficacy of compound 11a-1, the growth of oncogenic KITD814V bearing 32D myeloid cells in the presence of II-B08 and 11a-1 were compared. Specifically, the wild-type (WT) KIT and KITD814V were inserted into the bicistronic retroviral vector, MIEG3, upstream of the internal ribosome entry site (IRES) and the enhanced green fluorescent protein (EGFP) gene as previously described in Mali et al., 2012. Retroviral supernatants for transduction of 32D myeloid cells and primary hematopoietic stem and progenitor cells were generated using Phoenix ecotropic packaging cell line transfected with retroviral vector plasmids using a calcium phosphate transfection kit (Invitrogen, Carlsbad, Calif.). Supernatants were collected 48 hours after transfection and filtered through 0.45 μm membranes. 32D myeloid cells were infected twice at 24-hour intervals with 2 mL high/titer virus supernatant in the presence of 10 ng/mL IL-3 and 8 μg/mL polybrene. Forty-eight hours after infection, 32D cells expressing WT KIT or KITD814V receptors were sorted to homogeneity based on EGFP expression and utilized to perform all of the experiments.

[7] = tested on: leukemic mice; settings: together with PI3Kinase inhibitor LY294002, compared to either inhibitor alone; cited from earlier work
[8] = tested on: 32D myeloid cells bearing KITD814V; settings: previously shown (Mali et al., 2012); cited from earlier work
[9] = tested on: growth factor stimulated ERK1/2 activation; settings: cited from earlier work
[10] = tested on: 32D myeloid cells bearing wild-type (WT) KIT; assay: Proliferation (thymidine incorporation) of 32D myeloid cells bearing WT KIT; type: cell-based; settings: tested concentrations, with IL-3
Method: as §2
as §3, with “32D myeloid cells were infected twice at 24-hour intervals with 2 mL high/titer virus supernatant in the presence of 10 ng/mL IL-3 and 8 μg/mL polybrene. Forty-eight hours after infection, 32D cells expressing WT KIT or KITD814V receptors were sorted to homogeneity based on EGFP expression and utilized to perform all of the experiments.” left out

With `Cn1c(-c2cccc(NC(=O)C(=O)O)c2)c(I)c2cc(C(=O)O)c(O)cc21` [10a, 2-(3-(carboxyformamido)phenyl)-6-hydroxy-3-iodo-1-methyl-1H-indole-5-carboxylic acid] the “effect on Erk1/2 phosphorylation (SHP2 dependent signaling), in words” value [1] was “no effect; also recorded: failed to block”, the IC50 [2] was 14.4 µM and the “effect on Paxillin phosphorylation, in words” value [3] was “no effect”.

`Cn1c(-c2ccc(C(=O)Nc3cccc(OCc4ccccc4)c3)cc2)c(I)c2cc(C(=O)O)c(O)cc21` [7′c-1, 2-(4-((3-(benzyloxy)phenyl)carbamoyl)phenyl)-6-hydroxy-3-iodo-1-methyl-1H-indole-5-carboxylic acid] gave an IC50 [4] of 2.4 ± 0.1 µM.

In the case of `Cn1c(CCCC(=O)Nc2cccc(OCc3ccccc3)c2)c(I)c2cc(C(=O)O)c(O)cc21` [7′a-1, 2-(4-((3-(benzyloxy)phenyl)amino)-4-oxobutyl)-6-hydroxy-3-iodo-1-methyl-1H-indole-5-carboxylic acid], the IC50 [4] is reported as 5 ± 0.3 µM.

In the case of `Cn1c(CCCC(=O)Nc2ccc(OCc3ccccc3)c(Cl)c2)c(I)c2cc(C(=O)O)c(O)cc21` [7′a-3, 2-(4-((4-(benzyloxy)-3-chlorophenyl)amino)-4-oxobutyl)-6-hydroxy-3-iodo-1-methyl-1H-indole-5-carboxylic acid], the IC50 [4] is reported as > 20 µM.

Work on `Cn1c(-c2ccc(C(=O)O)cc2)c(I)c2cc(C(=O)O)c(O)cc21` [7′c, 2-(4-carboxyphenyl)-6-hydroxy-3-iodo-1-methyl-1H-indole-5-carboxylic acid] yielded an IC50 [4] of 9.2 ± 0.5 µM.

For `Cn1c(-c2ccccc2)c(-c2cn(CCC(=O)Nc3ccc(-c4ccccc4)cc3)nn2)c2cc(C(=O)O)c(O)cc21` [IIB08], the hematopoietic progenitor proliferation [5] is listed as “blocked”, the “ligand independent growth of KITD814V bearing 32D cells” value ([6]; 1 μM) is listed as “not at 1 μM concentration” and the “ligand independent growth of KITD814V bearing 32D cells” value ([6]; 5 μM) is listed as “significant suppression”. For the same compound, the “survival of leukemic mice” value [7] was “significantly prolonged the survival”, the “oncogenic KITD814V induced ligand independent growth” value [8] was “suppressed” and the “growth factor stimulated ERK1/2 activation” value [9] was “blocked”. For the same compound, the “growth of WT KIT bearing 32D cells” value [10] was “no significant suppression”.

Compound `Cn1c(CCCC(=O)NCc2ccc3c(c2)OCO3)c(I)c2cc(C(=O)O)c(O)cc21` [7′a-2, 2-(4-((benzo[d][1,3]dioxol-5-ylmethyl)amino)-4-oxobutyl)-6-hydroxy-3-iodo-1-methyl-1H-indole-5-carboxylic acid] has an IC50 [4] of 12.6 ± 2.8 µM.

For `Cn1c(-c2ccc(C(=O)Nc3ccc(OCc4ccccc4)c(Cl)c3)cc2)c(I)c2cc(C(=O)O)c(O)cc21` [7′c-3, 2-(4-((4-(benzyloxy)-3-chlorophenyl)carbamoyl)phenyl)-6-hydroxy-3-iodo-1-methyl-1H-indole-5-carboxylic acid], the “potency for SHP2 relative to 7′a-3” value [4] was 12 fold and the IC50 [4] was 1.6 µM.

In the case of `Cn1c(CCCC(=O)O)c(I)c2cc(C(=O)O)c(O)cc21` [7′a, 2-(3-carboxypropyl)-6-hydroxy-3-iodo-1-methyl-1H-indole-5-carboxylic acid], the IC50 [4] is reported as > 20 µM.
